# Source: article PMC3353944, “BC4707 Is a Major Facilitator Superfamily Multidrug Resistance Transport Protein from Bacillus cereus Implicated in Fluoroquinolone Tolerance” (PLoS ONE, 2012)
# Biological target: T1, BC4707 (Bacillus cereus, UniProt Q816V8)
# T1 construct: gene BC_4707; full-length with RGSHis6 tag (kept), expressed from pTTQ18 (pBC4707) in E. coli DH5alpha delta-acrAB
# Assay: norfloxacin accumulation assay, fluorescence of cell extracts vs empty-vector cells
# Format: cell-based
# Settings: E. coli DH5alpha delta-acrAB, 100 uM norfloxacin, 20 mM glucose, pH 7.0; CCCP (100 uM) added at 15 min
# T1 sequence (Q816V8 entry or part of it): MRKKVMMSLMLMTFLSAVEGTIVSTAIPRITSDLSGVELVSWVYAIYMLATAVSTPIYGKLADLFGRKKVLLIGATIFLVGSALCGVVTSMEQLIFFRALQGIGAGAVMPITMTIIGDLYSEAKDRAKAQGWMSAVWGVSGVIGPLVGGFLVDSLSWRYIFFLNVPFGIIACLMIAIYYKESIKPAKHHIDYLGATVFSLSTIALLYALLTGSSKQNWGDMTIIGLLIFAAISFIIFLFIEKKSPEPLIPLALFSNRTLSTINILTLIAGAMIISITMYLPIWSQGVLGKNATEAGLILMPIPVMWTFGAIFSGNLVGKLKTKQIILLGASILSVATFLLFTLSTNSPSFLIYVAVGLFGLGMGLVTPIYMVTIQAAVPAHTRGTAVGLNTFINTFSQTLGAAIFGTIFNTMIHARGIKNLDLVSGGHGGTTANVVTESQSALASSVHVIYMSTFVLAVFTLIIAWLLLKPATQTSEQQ
structure (smiles),measurement,value
CCn1cc(C(=O)O)c(=O)c2cc(F)c(N3CCNCC3)cc21 [norfloxacin],"norfloxacin accumulation assay, fluorescence of cell extracts vs empty-vector ce",indicating that the presence of BC4707-RGSHis6 prevents accumulation of norfloxacin in the cells
